{"source": "DBAASP", "experiment_in_all_cases": "≥ marks a high value that may be exact or a test limit, other limits are often not marked, values filed in µg/mL are converted to µM", "key": {"[1]": {"system": "Klebsiella aerogenes ATCC 13048"}, "[2]": {"system": "Escherichia coli MG1655 ΔrecA"}, "Escherichia coli MG1655": {"system": "Escherichia coli MG1655"}, "[3]": {"system": "Klebsiella pneumoniae ATCC BAA-1705"}, "Escherichia coli W3110": {"system": "Escherichia coli W3110"}, "[4]": {"system": "Klebsiella pneumoniae ATCC 10031"}, "[5]": {"system": "Staphylococcus aureus ATCC 25923"}, "[6]": {"system": "Bacillus subtilis ATCC 63501"}, "[7]": {"system": "Klebsiella pneumoniae CMCC 46117"}, "[8]": {"system": "Shigella dysenteriae CMCC 51252"}, "[9]": {"system": "Shigella flexneri CMCC 51572"}, "[10]": {"system": "Escherichia coli ATCC 25922 ΔsbmA"}, "[11]": {"system": "Enterococcus faecalis ATCC 29212"}, "Escherichia coli K88": {"system": "Escherichia coli K88"}, "[12]": {"system": "Salmonella enterica ATCC H9812"}, "[13]": {"system": "Shigella flexneri ATCC 12022"}, "[14]": {"system": "Salmonella typhimurium CMCC 50115"}, "[15]": {"system": "Bacillus megaterium ATCC 13632"}, "[16]": {"system": "Cryptococcus neoformans ATCC 208821"}, "[17]": {"system": "Staphylococcus aureus ATCC 6538"}, "[18]": {"system": "Staphylococcus aureus ATCC 43300"}, "[19]": {"system": "Acinetobacter baumannii ATCC 19606"}, "[20]": {"system": "Streptococcus pneumoniae ATCC 700677"}, "[21]": {"system": "Klebsiella pneumoniae ATCC 700603"}, "[22]": {"system": "Pseudomonas aeruginosa ATCC 15442"}, "[23]": {"system": "Staphylococcus aureus ATCC 29213"}, "[24]": {"system": "Staphylococcus aureus VRSA1"}, "[25]": {"system": "Candida tropicalis ATCC 750"}, "[26]": {"system": "Enterococcus faecium ATCC 35667"}, "[27]": {"system": "Bacillus subtilis ATCC 6051"}, "[28]": {"system": "Bacillus subtilis CCT 2576"}, "[29]": {"system": "Pseudomonas aeruginosa ATCC 27853"}, "[30]": {"system": "Candida albicans ATCC 90028"}, "[31]": {"system": "Escherichia coli ATCC 35218"}, "[32]": {"system": "Salmonella enterica subsp. enterica serovar Enteritidis 706 RIVM"}, "[33]": {"system": "Staphylococcus aureus WKZ2"}, "[34]": {"system": "Pseudomonas aeruginosa PAO1"}, "[35]": {"system": "Staphylococcus aureus ATCC 6538P"}, "Listeria monocytogenes": {"system": "Listeria monocytogenes"}, "[36]": {"system": "Salmonella enterica subsp. enterica serovar Typhimurium ATCC 14028"}, "[37]": {"system": "Escherichia coli ATCC 25922"}, "[38]": {"system": "Pseudomonas aeruginosa RP73"}, "[39]": {"system": "Escherichia coli ATCC 12795"}, "Candida krusei ATCC 6258": {"system": "Candida krusei ATCC 6258"}, "[40]": {"system": "Pseudomonas aeruginosa ATCC 27312"}, "[41]": {"system": "Mannheimia haemolytica 82-25"}, "[42]": {"system": "Serratia marcescens ATCC 14756"}}, "note": "Several values for one entry are separate records, joined by “and”; a condition that tells them apart may be missing. Equal entries are not always repeated.", "data": [{"smiles": "CC(C)C[C@H](NC(=O)CNC(=O)[C@H](C)NC(=O)[C@H](CCCN=C(N)N)NC(=O)[C@H](Cc1cnc[nH]1)NC(=O)[C@@H](NC(=O)[C@@H](N)CCCN=C(N)N)[C@@H](C)O)C(=O)N[C@@H](CCC(N)=O)C(=O)N[C@@H](Cc1ccccc1)C(=O)N1CCC[C@H]1C(=O)N[C@H](C(=O)NCC(=O)N[C@@H](CCCN=C(N)N)C(=O)N[C@H](C(=O)N[C@@H](Cc1cnc[nH]1)C(=O)N[C@@H](CCCN=C(N)N)C(=O)N[C@@H](CC(C)C)C(=O)N[C@@H](CC(C)C)C(=O)N[C@@H](CCCN=C(N)N)C(=O)N[C@@H](CCCCN)C(N)=O)C(C)C)C(C)C", "note": "[RTHRAGLQFPVGRVHRLLRK]", "values": [{"measurement": "MIC", "setting": "[1]", "value": "≥ 64", "unit": "µM"}, {"measurement": "MIC", "setting": "[2]", "value": 16, "unit": "µM"}, {"measurement": "MIC", "setting": "Escherichia coli MG1655", "value": "≥ 32", "unit": "µM"}]}, {"smiles": "CC[C@H](C)[C@H](N)C(=O)N[C@@H](Cc1c[nH]c2ccccc12)C(=O)N[C@@H](Cc1c[nH]c2ccccc12)C(=O)N[C@@H](C)C(=O)N[C@@H](CCCCN)C(=O)N[C@@H](Cc1c[nH]c2ccccc12)C(=O)NCC(=O)N[C@@H](CC(C)C)C(=O)N[C@@H](CCCCN)C(=O)N[C@@H](CC(C)C)C(=O)N[C@@H](CC(C)C)C(=O)N[C@@H](CC(=O)O)C(=O)N[C@@H](Cc1ccc(O)cc1)C(=O)N[C@@H](CCCN=C(N)N)C(=O)N[C@@H](CCCN=C(N)N)C(=O)N[C@H](C(=O)N[C@@H](Cc1c[nH]c2ccccc12)C(=O)O)[C@@H](C)CC", "note": "[IWWAKWGLKLLDYRRIW]", "values": [{"measurement": "MIC", "setting": "[3]", "value": "≥ 128", "unit": "µM"}, {"measurement": "MIC", "setting": "Escherichia coli W3110", "value": 8, "unit": "µM"}]}, {"smiles": "CC[C@H](C)[C@H](NC(=O)[C@@H]1CCCN1C(=O)[C@H](CCCN=C(N)N)NC(=O)[C@@H]1CCCN1C(=O)[C@H](CCCN=C(N)N)NC(=O)[C@@H]1CCCN1C(=O)[C@H](CC(C)C)NC(=O)[C@H](Cc1ccc(O)cc1)NC(=O)[C@@H]1CCCN1C(=O)[C@@H]1CCCN1C(=O)[C@H](CCCCN)NC(=O)[C@H](CC(=O)O)NC(=O)[C@@H](N)C(C)C)C(=O)N[C@@H](CCCN=C(N)N)C(=O)N[C@@H](CCCN=C(N)N)C(=O)N1CCC[C@H]1C(=O)NCC(=O)NCC(=O)N[C@@H](CCCN=C(N)N)C(N)=O", "note": "[VDKPPYLPRPRPIRRPGGR]", "values": [{"measurement": "MIC", "setting": "[4]", "value": "≥ 256", "unit": "µM"}, {"measurement": "MIC", "setting": "[5]", "value": "> 512", "unit": "µM"}, {"measurement": "MIC", "setting": "[6]", "value": "≥ 512", "unit": "µM"}, {"measurement": "MIC", "setting": "[7]", "value": "≥ 256", "unit": "µM"}, {"measurement": "MIC", "setting": "[8]", "value": "4 µM and 2 µM"}, {"measurement": "MIC", "setting": "[9]", "value": 2, "unit": "µM"}, {"measurement": "MIC", "setting": "[10]", "value": "≥ 256", "unit": "µM"}, {"measurement": "MIC", "setting": "[11]", "value": "> 512", "unit": "µM"}, {"measurement": "MIC", "setting": "Escherichia coli K88", "value": 2, "unit": "µM"}, {"measurement": "MIC", "setting": "[12]", "value": 2, "unit": "µM"}, {"measurement": "MIC", "setting": "[13]", "value": 1, "unit": "µM"}, {"measurement": "MIC", "setting": "[14]", "value": "1 µM and 2 µM"}]}, {"smiles": "CC[C@H](C)[C@H](N)C(=O)N[C@@H](CC(N)=O)C(=O)N[C@@H](Cc1c[nH]c2ccccc12)C(=O)N[C@@H](CC(C)C)C(=O)N[C@@H](CCCCN)C(=O)N[C@@H](CC(C)C)C(=O)NCC(=O)N[C@@H](CCCCN)C(=O)N[C@@H](C)C(=O)N[C@H](C(=O)N[C@H](C(=O)N[C@@H](CC(=O)O)C(=O)N[C@@H](C)C(=O)N[C@@H](CC(C)C)C(N)=O)[C@@H](C)CC)[C@@H](C)CC", "note": "[INWLKLGKAIIDAL]", "values": [{"measurement": "MIC", "setting": "[15]", "value": 2.55, "unit": "µM"}, {"measurement": "MIC", "setting": "[16]", "value": 2.55, "unit": "µM"}, {"measurement": "MIC", "setting": "[17]", "value": 122, "unit": "µM"}, {"measurement": "MIC", "setting": "[18]", "value": 5.1, "unit": "µM"}, {"measurement": "MIC", "setting": "[19]", "value": 5.1, "unit": "µM"}, {"measurement": "MIC", "setting": "[20]", "value": 5.1, "unit": "µM"}, {"measurement": "MIC", "setting": "[21]", "value": 81.6, "unit": "µM"}, {"measurement": "MIC", "setting": "[22]", "value": "≥ 164", "unit": "µM"}, {"measurement": "MIC", "setting": "[23]", "value": 5.1, "unit": "µM"}, {"measurement": "MIC", "setting": "[24]", "value": 3.61, "unit": "µM"}, {"measurement": "MIC", "setting": "[25]", "value": 1.28, "unit": "µM"}, {"measurement": "MIC", "setting": "[26]", "value": 3.61, "unit": "µM"}, {"measurement": "MIC", "setting": "[27]", "value": 2.55, "unit": "µM"}, {"measurement": "MIC", "setting": "[28]", "value": "≥ 151", "unit": "µM"}, {"measurement": "MIC", "setting": "[29]", "value": 115, "unit": "µM"}, {"measurement": "MIC", "setting": "[30]", "value": 7.22, "unit": "µM"}]}, {"smiles": "CC(C)C[C@H](NC(=O)[C@@H](NC(=O)[C@@H]1CCCN1C(=O)[C@H](C)NC(=O)[C@H](CCCCN)NC(=O)[C@H](Cc1c[nH]c2ccccc12)NC(=O)[C@H](CCC(N)=O)NC(=O)[C@@H]1CCCN1C(=O)[C@H](Cc1ccccc1)NC(=O)[C@H](Cc1ccc(O)cc1)NC(=O)[C@H](CCCCN)NC(=O)[C@H](CCCN=C(N)N)NC(=O)[C@H](C)NC(=O)[C@@H]1CCCN1C(=O)[C@H](CC(N)=O)NC(=O)[C@H](CC(C)C)NC(=O)[C@H](CC(N)=O)NC(=O)[C@H](Cc1cnc[nH]1)NC(=O)[C@H](CCCCN)NC(=O)[C@H](CCCCN)NC(=O)[C@H](CC(C)C)NC(=O)[C@H](Cc1ccccc1)NC(=O)[C@@H]1CCCN1)[C@@H](C)O)C(=O)O", "note": "[PFLKKHNLNPARKYFPQWKAPTL]", "values": [{"measurement": "MIC", "setting": "[31]", "value": "≥ 50", "unit": "µM"}, {"measurement": "MIC", "setting": "[32]", "value": "≥ 50", "unit": "µM"}, {"measurement": "MIC", "setting": "[33]", "value": "≥ 50", "unit": "µM"}, {"measurement": "MIC", "setting": "[34]", "value": 25, "unit": "µM"}, {"measurement": "MIC", "setting": "[35]", "value": 3.12, "unit": "µM"}, {"measurement": "MIC", "setting": "[11]", "value": "> 50", "unit": "µM"}, {"measurement": "MIC", "setting": "Listeria monocytogenes", "value": "≥ 50", "unit": "µM"}, {"measurement": "MIC", "setting": "[36]", "value": "> 50", "unit": "µM"}, {"measurement": "MIC", "setting": "[37]", "value": "> 50", "unit": "µM"}, {"measurement": "MIC", "setting": "[38]", "value": 12.5, "unit": "µM"}]}, {"smiles": "N[C@@H](CC(=O)O)C(=O)N[C@@H](CC(=O)O)C(=O)N[C@@H](CC(=O)O)C(=O)N[C@@H](CC(=O)O)C(=O)N[C@@H](CC(=O)O)C(=O)N[C@@H](CC(=O)O)C(=O)N[C@@H](CC(=O)O)C(=O)O", "note": "[DDDDDDD]", "values": [{"measurement": "MIC", "setting": "[39]", "value": "≥ 570", "unit": "µM"}, {"measurement": "MIC", "setting": "Candida krusei ATCC 6258", "value": "≥ 3190", "unit": "µM"}, {"measurement": "MIC", "setting": "[4]", "value": "≥ 800", "unit": "µM"}, {"measurement": "MIC", "setting": "[40]", "value": "≥ 1500", "unit": "µM"}, {"measurement": "MIC", "setting": "[23]", "value": 940, "unit": "µM"}, {"measurement": "MIC", "setting": "[11]", "value": 1160, "unit": "µM"}, {"measurement": "MIC", "setting": "[41]", "value": "≥ 80", "unit": "µM"}, {"measurement": "MIC", "setting": "[42]", "value": "≥ 1500", "unit": "µM"}]}]}
